In brackets after ≈: the same amount, converted by molar mass. Values belong to the molecule of their own block, whether it stands above or below them.
What was measured:
[1] = tested on: cyclic AMP phosphodiesterase originated from a cow brain; experiment: Reaction with cyclic AMP phosphodiesterase; assay type: biochemical; details: enzyme originated from a cow brain
[2] = Cytotoxicity in non-infected control culture (visible disruption of normal cell morphology); assay type: cell-based; details: monkey, vero cells; minimum concentration to cause a visible disruption of normal cell morphology; non-infected Vero control culture, three days; read-out: Cytotoxicity^b)
[3] = tested on: Herpes Simplex Virus Type 1, HF Strainn; experiment: Inhibition of viral cytopathogenic effect in infected Vero cells; assay type: cell-based
Text: Inhibitory Effect of Antiviral Compounds against Herpes Simplex Virus Type 1, HF Strainn
Vero cells were infected with 100 TCIDso(50% tissue-culture infected doses) of viruses and cultured with various concentrations of the compounds.

Vero cells = experiment: Cytotoxicity in non-infected control culture (visible disruption of normal cell morphology); assay type: cell-based; details: minimum concentration to cause a visible disruption of normal cell morphology; non-infected Vero control culture, three days; 4320 min

Molecule: 2'-Deoxyaristeromycin-3',6'-cyclic phosphate [Example 1]
conversion by cyclic AMP phosphodiesterase [1]: changed to 2'-deoxyaristeromycin-mono phosphate

EC50 ([3]; Human alphaherpesvirus 1, 72 h; concentration required to reduce the viral cytopathogenic effect by 50%; Vero cells infected with 100 TCID50; observed three days after the infection; read-out: ID50^a)): 0.2 µg/mL (≈ 0.579 µM)
Molecule: Nc1nc2c(ncn2[C@@H]2C[C@H](COP(=O)(O)O)[C@@H](O)C2)c(=O)[nH]1 [Carbocyclic•2'-deoxyguanosine-6'-monophosphate]
MCC at 72 h [2]: 50 µg/mL

Molecule: Carbocyclic•2'-deoxyguanosine 6'-triphosphate
Cytotoxicity^b) (Vero cells): 50 µg/mL | ID50^a) ([3]; concentration required to reduce the viral cytopathogenic effect by 50%, Vero cells infected with 100 TCID50, observed three days after the infection, 4320 min): 0.4 µg/mL
